Reference: patent US6413975B1, “Purine derivatives having phosphodiesterase iv inhibition activity” (Euro-Celtique, S.A., priority 1999, dated 2002)
Where a name gives a salt, the structure may show the parent alone. Read-outs that look alike come from different tables or passages of the source.

Tested on: Type IV PDE
Test: PDE IV inhibition: hydrolysis of [3H]-cyclic AMP by isolated Type IV PDE
Format: biochemical, bovine
Method: The Type IV PDE is isolated from bovine tracheal smooth muscle using a procedure similar to that previously described by Silver, P. J., Hamel, L. T., Perrone, M. H. Bentley, R. G. Bushover, C. R., Evans, D. B.: Eur. J. Pharmacol. 150:85,1988.(1). Briefly, smooth muscle from bovine trachea is minced and homogenized using a polytron in 10 volumes of an extraction buffer containinhg 10 mM Tris-acetate (pH 7.5), 2 mM magnesium chloride, 1 mM dithiothreitol and 2,000 units/ml of aprotinin. This and all subsequent procedures are performed at 0-4° C. The homogenate is sonicated and then centrifiged at 48,000×g for 30 minutes. The resulting supernatant is applied to a DEAE Trisacryl M column previously equilibrated with sodium acetate and dithiothreitol. After applications of the sample, the column is washed with sodium acetate/dithiothreitol, after which the different forms of PDE are eluted from the column using a linear Tris-HCl/NaCl gradient. Fractions containing Type IV PDE are collected, dialyzed and concentrated to 14% of the original volume. The concentrated fractions are diluted to 50% with ethylene glycol and stored at -20° C.
Enzyme activity is assessed by measuring the hydrolysis of [^3H]-cyclic AMP, as described by Thompson, W. J., Teraski, W. L., Epstein, P. N., Strada, S. J.: Adv. Cyclic Nucleotide Res. 10:69, 1979. The cyclic AMP concentration used in this assay is 0.2 μM, which approximates the Km value. Protein concentration is adjusted to ensure that no more than 15% of the available substrate is hydrolyzed during the incubation period.
All test compounds are dissolved in dimethyl sulfoxide (final concentration of 2.5%). This concentration of dimethyl sulfoxide inhibits enzyme activity by approximately 10%.

[1] = adenines, Table 7, read-out: calc PDE IV IC50
[2] = adenines, Table 4, cyclic AMP 0.2 μM, read-out: calc PDE IV IC50
[3] = thioisoguanines, Table 2, cyclic AMP 0.2 μM, read-out: Calc IC50 PDE IV
[4] = dithioxanthines, Table 5, read-out: IC50 PDE IV

Row | IC50 [1] [µM] | IC50 [2] [µM] | Structure (SMILES) | also measured
1 | 3.12 | – | COc1ccc(Cn2cnc(N)c3nc(C(C)(C)OCc4ccccc4)nc2-3)cc1OCc1ccccc1 [6-amino-3-[(3-benzyloxy-4-methoxy)benzyl]-8-[(1-benzyloxy-1-methyl)ethyl]-3H-purine] | –
2 | – | 5.99 | CCCCn1cnc(NCC)c2nc(C3CC3)nc1-2 [3-butyl-8-cyclopropyl-6-ethylamino-3H-purine hydrochloride] | –
3 | – | – | CCNc1nc(=S)n(CC)c2nc(C3CC3)[nH]c12 [8-cyclopropyl-3-ethyl-6-ethylamino-3,7-dihydro-2-thio-2H-purin-2-one] | IC50 [3]: 13.7 µM
4 | – | 62.4 | CCn1cnc(NCc2ccccc2)c2nc(C3CCCC3)nc1-2 [3-ethyl-8-cyclopentyl-6-benzylamino-3H-purine hydrochloride] | –
5 | 12.8 | – | COc1ccc(Cn2cnc(NCC(F)(F)F)c3nc(C(C)C)nc2-3)cc1OC1CCCC1 [3-(3-cyclopentyloxy-4-methoxybenzyl)-6-((2,2,2-trifluoroethyl)amino)-8-isopropyl-3H-purine] | –
6 | – | – | CCn1c(=S)nc(NC2CCCC2)c2[nH]c(C(C)C)nc21 [3-ethyl-6-cyclopentylamino-3,7-dihydro-8-isopropyl-2-thio-2H-purin-2-one] | IC50 [3]: 9.4 µM
7 | – | 52.2 | CCNc1ncn(CC)c2nc(C(C)C)nc1-2 [3-ethyl-8-isopropyl-6-ethylamino-3H-purine hydrochloride] | –
8 | – | 6.31 | CCCn1cnc(NCC)c2nc(C3CC3)nc1-2 [8-cyclopropyl-6-ethylamino-3-propyl-3H-purine hydrochloride] | –
9 | 4.5 | – | CCNc1ncn(Cc2ccc(OC)c(OCc3cc[n+]([O-])cc3)c2)c2nc(C(C)C)nc1-2 [6-Ethylamino-3-[(3-pyridin-4-yl-methoxy)N-oxide-4-methoxy]-8-isopropyl-3H-purine] | –
10 | – | – | CCCn1c(=S)nc(NC2CCCC2)c2[nH]c(C(C)C)nc21 [6-cyclopentylamino-3,7-dihydro-8-isopropyl-3-propyl-2-thio-2H-purin-2-one] | IC50 [3]: 45.1 µM
11 | 1.69 | – | CC(C)c1nc2c(NC3CC3)ncn(Cc3ccc(Cl)cc3)c-2n1 [3-(4-chlorobenzyl)-6-cyclopropylamino-8-isopropyl-3H-purine] | –
12 | – | – | S=c1[nH]c(=S)n(CC2CCCCC2)c2nc(C3CC3)[nH]c12 [3-cyclohexylmethyl-8-cyclopropyl-3,7-dihydro-2,6-dithio-1H-purine-2,6-dione] | IC50 [4]: 3.03 µM
13 | 1.2 | – | CCNc1ncn(Cc2ccc(OC)cc2)c2nc(C(C)C)nc1-2 [6-ethylamino-8-isopropyl-3-(4-methoxybenzyl)-3H-purine] | –
14 | – | – | CCNc1nc(=S)n(Cc2ccccc2)c2nc(C(C)C)[nH]c12 [3-benzyl-6-ethylamino-3,7-dihydro-8-(1-methyl-ethyl)-2-thio-2H-purin-2-one] | IC50 [3]: 28.4 µM
15 | – | – | COc1ccc(Cn2c(=S)[nH]c(=S)c3[nH]cnc32)cc1OC1CCCC1 [3-(3-cyclopentyloxy-4-methoxybenzyl)-3,7-dihydro-2,6-dithio-1H-purine-2,6-dione] | IC50 [4]: 16.2 µM
16 | – | – | CCCn1c(=S)nc(NCCO)c2[nH]c(C3CC3)nc21 [8-cyclopropyl-3,7-dihydro-6-(2-hydroxyethylamino)-3-propyl-2-thio-2H-purin-2-one] | IC50 (read-out: PDE IV I50): 4.48 µM; IC50 [3]: 53.8 µM
17 | 3.1 | – | CCNc1ncn(Cc2ccc(OC)c(OC3CCCC3)c2)c2nc(C(C)(C)O)nc1-2 [3-[(3-cyclopentyloxy-4-methoxy)benzyl]-8-[(1-methyl-1-hydrox] [3-[(3-cyclopentyloxy-4-methoxy)benzyl]-8-[(1-methyl-1-hydroxy)ethyl]-6-ethylamino-3H-purine] | –
18 | 4.1 | – | CC(C)c1nc2c(N)ncn(Cc3ccc4c(c3)OCO4)c-2n1 [6-amino-3(3,4-methylenedioxybenzyl)-8-isopropyl-3H-purine] | –
19 | – | 3.78 | CCNc1ncn(CC2CCCCC2)c2nc(C3CC3)nc1-2 [3-cyclohexylmethyl-8-cyclopropyl-6-ethylamino-3H-purine hydrochloride] | –
20 | – | 66.4 | CCCCn1cnc(NCC)c2ncnc1-2 [3-butyl-6-ethylamino-3H-purine hydrochloride] | –
